This note sets out measurements from US20070156342A1, “Pseudo-sequence method for comparing 7tm receptors with respect to the physico-chemical properties of their binding sites” (7TM PHARMA A/S, priority 2003, published 2007).

By IC50 is commonly meant the concentration that gives 50% inhibition. A low value points to greater potency.

This assay concerns the target T1, GRP44 (CRTH2) (Homo sapiens, UniProt Q9Y5Y4).
T1 sequence (Q9Y5Y4 1-395): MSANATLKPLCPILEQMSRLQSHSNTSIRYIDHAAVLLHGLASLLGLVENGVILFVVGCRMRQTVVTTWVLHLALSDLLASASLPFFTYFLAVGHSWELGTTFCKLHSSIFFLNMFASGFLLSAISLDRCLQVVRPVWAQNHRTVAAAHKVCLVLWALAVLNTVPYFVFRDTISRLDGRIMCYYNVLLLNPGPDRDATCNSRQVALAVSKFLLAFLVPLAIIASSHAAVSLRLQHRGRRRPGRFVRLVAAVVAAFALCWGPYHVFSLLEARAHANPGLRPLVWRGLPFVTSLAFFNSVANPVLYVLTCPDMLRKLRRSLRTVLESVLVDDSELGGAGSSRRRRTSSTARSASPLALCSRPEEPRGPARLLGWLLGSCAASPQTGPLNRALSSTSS
As to the kind of experiment: Inhibition of [3H]PGD2 at GRP44 (CRTH2). It is filed as binding. The source says:
A model using theoretical size and electronic descriptors ranked the angiotensin AT2 and angiotensin AT1 receptors to be closely related to GRP44 (CRTH2) with respect to ligand-binding features in the binding site.

Regarding `CCOc1nc2cccc(C(=O)O)c2n1Cc1ccc(-c2ccccc2-c2nnn[nH]2)cc1` [candesartan], the “binding to CRTH2 (in words)” value (angiotensin II ligand found via the related receptor) is recorded as “also binding to CRTH2”. Under “radioligand [3H]PGD2”, this compound came in with an IC50 of 2100 nM.
